Consider six compounds from patent US12139520B2 (priority 2020, dated 2024).

SMILES strings stand for the structures. Numbered stars: 1 amine (or outer) side, 2 acyl side, 3 side chain; on linkers, the order of the positions; unused ones are H or OH. Bridge positions count the residues as written; N and C are the ends. Square brackets hold non-standard residues; d marks the D form. Peptide text beside a SMILES is read from it. * marks the point of attachment. C20 diacid = O=C(O)CCCCCCCCCCCCCCCCCCC(=O)*; γGlu = O=C(O)[C@H](CCC(=O)[*:2])N[*:1]; Hyp = O=C(O)[C@@H]1C[C@@H](O)CN1 Bounds are passed on as bounds.

The target in one test is hAM1 receptor (Homo sapiens, UniProt O60895+Q16602). The experiment in a line: cAMP assay for in vitro receptor activation, hAM1-R. The following applies: cAMP assay, hAM1 receptor; read-out: hAM1R EC50. Format: cell-based. The essentials: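 cAMP accumulation was measured in a monoclonal cell line stably overexpressing the hAM1 receptor. Frozen aliquots were thawed and plated at 8000 cells/well in DPBS containing 0.05% casein and 0.5 mM IBMX.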
Sequence of hAM1 receptor (Q16602 23-461): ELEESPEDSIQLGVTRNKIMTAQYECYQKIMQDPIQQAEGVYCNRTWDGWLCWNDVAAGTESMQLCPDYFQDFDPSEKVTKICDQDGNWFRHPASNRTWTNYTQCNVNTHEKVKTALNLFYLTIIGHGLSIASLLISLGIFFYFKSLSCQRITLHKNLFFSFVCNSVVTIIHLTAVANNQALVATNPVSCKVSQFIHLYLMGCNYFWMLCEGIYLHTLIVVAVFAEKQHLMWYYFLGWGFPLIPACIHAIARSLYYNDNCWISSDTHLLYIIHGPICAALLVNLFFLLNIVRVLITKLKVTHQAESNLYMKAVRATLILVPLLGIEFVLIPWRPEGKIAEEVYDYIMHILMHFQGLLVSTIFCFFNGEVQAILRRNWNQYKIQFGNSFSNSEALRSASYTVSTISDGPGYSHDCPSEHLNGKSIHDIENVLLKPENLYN
Sequence of hAM1 receptor (O60895 43-175 partner): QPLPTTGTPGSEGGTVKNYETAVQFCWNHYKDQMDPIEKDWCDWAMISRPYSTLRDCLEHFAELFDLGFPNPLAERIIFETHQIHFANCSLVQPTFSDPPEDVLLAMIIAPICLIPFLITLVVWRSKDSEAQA
A general note: Cyclic AMP is a second messenger, typically raised through Gs and lowered through Gi signalling.

For a further test, the target named is T1, hAMY3 receptor (Homo sapiens, UniProt O60896+P30988).
T1 sequence (P30988 25-474): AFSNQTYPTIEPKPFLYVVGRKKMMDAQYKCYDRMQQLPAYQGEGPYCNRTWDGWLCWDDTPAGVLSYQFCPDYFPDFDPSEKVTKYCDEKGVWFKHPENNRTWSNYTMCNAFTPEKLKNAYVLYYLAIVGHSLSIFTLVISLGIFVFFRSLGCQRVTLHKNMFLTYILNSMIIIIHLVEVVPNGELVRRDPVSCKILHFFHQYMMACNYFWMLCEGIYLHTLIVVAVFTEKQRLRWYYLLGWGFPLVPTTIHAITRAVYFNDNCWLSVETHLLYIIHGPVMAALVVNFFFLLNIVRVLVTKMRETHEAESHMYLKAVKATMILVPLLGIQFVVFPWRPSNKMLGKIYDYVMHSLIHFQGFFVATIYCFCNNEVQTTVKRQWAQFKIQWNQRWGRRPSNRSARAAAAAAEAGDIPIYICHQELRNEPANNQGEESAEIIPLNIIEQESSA
T1 sequence (O60896 24-148 partner): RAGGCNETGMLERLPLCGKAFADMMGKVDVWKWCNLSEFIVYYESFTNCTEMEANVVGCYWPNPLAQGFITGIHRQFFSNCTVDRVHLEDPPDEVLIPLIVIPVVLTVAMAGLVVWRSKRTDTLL
The test can be described thus: cAMP assay for in vitro receptor activation, hAMY3-R. It is filed as cell-based. The following applies: cAMP assay, hAMY3 receptor; read-out: hAMY3R EC50. A digest of the protocol: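 Monoclonal cell line stably overexpressing human AMY3 receptor, 2000 cells/well in DPBS with 0.05% casein and 0.5 mM IBMX. Stimulated 30 min at room temperature with graded compound doses, human amylin as positive control. cAMP accumulation read by TR-FRET after one hour.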

Consider `CC[C@H](C)[C@H](NC(=O)[C@H](CCC(N)=O)NC(=O)[C@H](Cc1c[nH]cn1)NC(=O)[C@H](C)NC(=O)[C@H](CC(C)C)NC(=O)[C@H](CCCNC(=N)N)NC(=O)[C@H](CCC(N)=O)NC(=O)[C@@H](NC(=O)[C@@H](NC(=O)[C@@H]1CSSC[C@H](NC(=O)[C@H](CCCCN)NC(=O)CC[C@H](NC(=O)CCCCCCCCCCCCCCCCCCC(=O)O)C(=O)O)C(=O)N[C@@H](CC(N)=O)C(=O)N[C@@H]([C@@H](C)O)C(=O)N[C@@H](C)C(=O)N[C@@H]([C@@H](C)O)C(=O)N1)[C@@H](C)O)C(C)C)C(=O)N[C@@H](Cc1ccc(O)cc1)C(=O)N[C@@H](CCC(N)=O)C(=O)N[C@@H](Cc1ccccc1)C(=O)N[C@@H](Cc1ccc(O)cc1)C(=O)N[C@@H](CC(=O)O)C(=O)N[C@@H](CCCCN)C(=O)N[C@@H](CC(=O)O)C(=O)N[C@@H](CCCCN)C(=O)N[C@@H](CC(=O)O)C(=O)N[C@@H](CC(N)=O)C(=O)N[C@H](C(=O)N[C@@H](C)C(=O)N1CCC[C@H]1C(=O)N1CCC[C@H]1C(=O)N[C@H](C(=O)N[C@@H](CC(N)=O)C(=O)N[C@H](C(=O)NCC(=O)N[C@@H](CO)C(=O)N[C@@H](CC(N)=O)C(=O)NCC(=O)N1C[C@H](O)C[C@H]1C(N)=O)C(C)C)[C@@H](C)O)C(C)C` [compound 104] ({C20 diacid-γGlu}-KCNTATCTVQRLAHQIYQFYDKDKDNVAPPTNVGSNG[Hyp]-NH2; disulfide 2-7), for which the EC50 at hAM1 receptor was greater than 5000 nM; at hAMY3 receptor, 0.018 nM.
As to `CC[C@H](C)[C@H](NC(=O)[C@H](CCC(N)=O)NC(=O)[C@H](Cc1c[nH]cn1)NC(=O)[C@H](C)NC(=O)[C@H](CC(C)C)NC(=O)[C@H](CCCNC(=N)N)NC(=O)[C@H](CCC(N)=O)NC(=O)[C@@H](NC(=O)[C@@H](NC(=O)[C@@H]1CSSC[C@H](NC(=O)[C@H](CCCCN)NC(=O)CC[C@H](NC(=O)CCCCCCCCCCCCCCCCCCC(=O)O)C(=O)O)C(=O)N[C@@H](CC(N)=O)C(=O)N[C@@H]([C@@H](C)O)C(=O)N[C@@H](C)C(=O)N[C@@H]([C@@H](C)O)C(=O)N1)[C@@H](C)O)C(C)C)C(=O)N[C@@H](C)C(=O)N[C@@H](CCC(N)=O)C(=O)N[C@@H](Cc1ccccc1)C(=O)N[C@@H](C)C(=O)N[C@@H](CC(=O)O)C(=O)N[C@@H](CCCCN)C(=O)N[C@@H](CC(=O)O)C(=O)N[C@@H](CCCCN)C(=O)N[C@@H](CC(=O)O)C(=O)N[C@@H](CC(N)=O)C(=O)N[C@H](C(=O)N[C@@H](C)C(=O)N1CCC[C@H]1C(=O)N1CCC[C@H]1C(=O)N[C@H](C(=O)N[C@@H](CC(N)=O)C(=O)N[C@H](C(=O)NCC(=O)N[C@@H](CO)C(=O)N[C@@H](CC(N)=O)C(=O)NCC(=O)N1C[C@H](O)C[C@H]1C(N)=O)C(C)C)[C@@H](C)O)C(C)C` [compound 105] ({C20 diacid-γGlu}-KCNTATCTVQRLAHQIAQFADKDKDNVAPPTNVGSNG[Hyp]-NH2; disulfide 2-7), the values for the concentration for a half-maximal effect (EC50) on hAM1 receptor and on hAMY3 receptor were greater than 5000 nM and 0.018 nM, respectively.
Regarding `CC[C@H](C)[C@H](NC(=O)[C@H](CCC(N)=O)NC(=O)[C@H](CCC(=O)O)NC(=O)[C@H](C)NC(=O)[C@H](CC(C)C)NC(=O)[C@H](CCCNC(=N)N)NC(=O)[C@H](CCC(N)=O)NC(=O)[C@@H](NC(=O)[C@@H](NC(=O)[C@@H]1CSSC[C@H](NC(=O)[C@H](CCCCN)NC(=O)CC[C@H](NC(=O)CCCCCCCCCCCCCCCCCCC(=O)O)C(=O)O)C(=O)N[C@@H](CC(N)=O)C(=O)N[C@@H]([C@@H](C)O)C(=O)N[C@@H](C)C(=O)N[C@@H]([C@@H](C)O)C(=O)N1)[C@@H](C)O)C(C)C)C(=O)N[C@@H](Cc1ccc(O)cc1)C(=O)N[C@@H](CCC(N)=O)C(=O)N[C@@H](Cc1ccccc1)C(=O)N[C@H](C(=O)N[C@@H](C)C(=O)N[C@@H](CCCCN)C(=O)N[C@@H](CC(=O)O)C(=O)N[C@@H](CCCCN)C(=O)N[C@@H](CC(=O)O)C(=O)N[C@@H](CC(N)=O)C(=O)N[C@H](C(=O)N[C@@H](C)C(=O)N1CCC[C@H]1C(=O)N1CCC[C@H]1C(=O)N[C@H](C(=O)N[C@@H](CC(N)=O)C(=O)N[C@H](C(=O)NCC(=O)N[C@@H](CO)C(=O)N[C@@H](CC(N)=O)C(=O)NCC(=O)N1C[C@H](O)C[C@H]1C(N)=O)C(C)C)[C@@H](C)O)C(C)C)[C@@H](C)O` [compound 106] ({C20 diacid-γGlu}-KCNTATCTVQRLAEQIYQFTAKDKDNVAPPTNVGSNG[Hyp]-NH2; disulfide 2-7), the values for the EC50 on hAM1 receptor and at hAMY3 receptor were greater than 5000 nM and 0.018 nM, respectively.
On to `CC[C@H](C)[C@H](NC(=O)[C@H](CCC(N)=O)NC(=O)[C@H](CCC(=O)O)NC(=O)[C@H](C)NC(=O)[C@H](CC(C)C)NC(=O)[C@H](CCCNC(=N)N)NC(=O)[C@H](CCC(N)=O)NC(=O)[C@@H](NC(=O)[C@@H](NC(=O)[C@@H]1CSSC[C@H](NC(=O)[C@H](CCCCN)NC(=O)CC[C@H](NC(=O)CCCCCCCCCCCCCCCCCCC(=O)O)C(=O)O)C(=O)N[C@@H](CC(N)=O)C(=O)N[C@@H]([C@@H](C)O)C(=O)N[C@@H](C)C(=O)N[C@@H]([C@@H](C)O)C(=O)N1)[C@@H](C)O)C(C)C)C(=O)N[C@@H](Cc1ccc(O)cc1)C(=O)N[C@@H](CCC(N)=O)C(=O)N[C@@H](Cc1ccccc1)C(=O)N[C@H](C(=O)N[C@@H](CC(=O)O)C(=O)N[C@@H](CCCCN)C(=O)N[C@@H](CC(=O)O)C(=O)N[C@@H](CCCCN)C(=O)N[C@@H](C)C(=O)N[C@@H](CC(N)=O)C(=O)N[C@H](C(=O)N[C@@H](C)C(=O)N1CCC[C@H]1C(=O)N1CCC[C@H]1C(=O)N[C@H](C(=O)N[C@@H](CC(N)=O)C(=O)N[C@H](C(=O)NCC(=O)N[C@@H](CO)C(=O)N[C@@H](CC(N)=O)C(=O)NCC(=O)N1C[C@H](O)C[C@H]1C(N)=O)C(C)C)[C@@H](C)O)C(C)C)[C@@H](C)O` [compound 108] ({C20 diacid-γGlu}-KCNTATCTVQRLAEQIYQFTDKDKANVAPPTNVGSNG[Hyp]-NH2; disulfide 2-7), for which the EC50 on hAM1 receptor was greater than 5000 nM; at hAMY3 receptor, 0.019 nM.
Regarding `CC[C@H](C)[C@H](NC(=O)[C@H](CCC(N)=O)NC(=O)[C@H](Cc1c[nH]cn1)NC(=O)[C@H](C)NC(=O)[C@H](CC(C)C)NC(=O)[C@H](CCCNC(=N)N)NC(=O)[C@H](CCC(N)=O)NC(=O)[C@@H](NC(=O)[C@@H](NC(=O)[C@@H]1CSSC[C@H](NC(=O)[C@H](CCCCN)NC(=O)CC[C@H](NC(=O)CCCCCCCCCCCCCCCCCCC(=O)O)C(=O)O)C(=O)N[C@@H](CC(N)=O)C(=O)N[C@@H]([C@@H](C)O)C(=O)N[C@@H](C)C(=O)N[C@@H]([C@@H](C)O)C(=O)N1)[C@@H](C)O)C(C)C)C(=O)N[C@@H](CCC(=O)O)C(=O)N[C@@H](CCC(N)=O)C(=O)N[C@@H](Cc1ccccc1)C(=O)N[C@H](C(=O)N[C@@H](CC(=O)O)C(=O)N[C@@H](CCCCN)C(=O)N[C@@H](CC(=O)O)C(=O)N[C@@H](CCCCN)C(=O)N[C@@H](CC(=O)O)C(=O)N[C@@H](CC(N)=O)C(=O)N[C@H](C(=O)N[C@@H](C)C(=O)N1CCC[C@H]1C(=O)N1CCC[C@H]1C(=O)N[C@H](C(=O)N[C@@H](CC(N)=O)C(=O)N[C@H](C(=O)NCC(=O)N[C@@H](CO)C(=O)N[C@@H](CC(N)=O)C(=O)NCC(=O)N1C[C@H](O)C[C@H]1C(N)=O)C(C)C)[C@@H](C)O)C(C)C)[C@@H](C)O` [compound 110] ({C20 diacid-γGlu}-KCNTATCTVQRLAHQIEQFTDKDKDNVAPPTNVGSNG[Hyp]-NH2; disulfide 2-7), the EC50 at hAM1 receptor was greater than 5000 nM; at hAMY3 receptor, 0.02 nM.
As for `CC[C@H](C)[C@H](NC(=O)[C@H](CCC(N)=O)NC(=O)[C@H](Cc1c[nH]cn1)NC(=O)[C@H](C)NC(=O)[C@H](CC(C)C)NC(=O)[C@H](CCCNC(=N)N)NC(=O)[C@H](CC(=O)O)NC(=O)[C@@H](NC(=O)[C@@H](NC(=O)[C@@H]1CSSC[C@H](NC(=O)[C@H](CCCCN)NC(=O)CC[C@H](NC(=O)CCCCCCCCCCCCCCCCCCC(=O)O)C(=O)O)C(=O)N[C@@H](CC(N)=O)C(=O)N[C@@H]([C@@H](C)O)C(=O)N[C@@H](C)C(=O)N[C@@H]([C@@H](C)O)C(=O)N1)[C@@H](C)O)C(C)C)C(=O)N[C@@H](C)C(=O)N[C@@H](CCC(N)=O)C(=O)N[C@@H](Cc1ccccc1)C(=O)N[C@H](C(=O)N[C@@H](CC(=O)O)C(=O)N[C@@H](CCCCN)C(=O)N[C@@H](CC(=O)O)C(=O)N[C@@H](CCCCN)C(=O)N[C@@H](CC(=O)O)C(=O)N[C@@H](CC(N)=O)C(=O)N[C@H](C(=O)N[C@@H](C)C(=O)N1CCC[C@H]1C(=O)N1CCC[C@H]1C(=O)N[C@H](C(=O)N[C@@H](CC(N)=O)C(=O)N[C@H](C(=O)NCC(=O)N[C@@H](CO)C(=O)N[C@@H](CC(N)=O)C(=O)NCC(=O)N1C[C@H](O)C[C@H]1C(N)=O)C(C)C)[C@@H](C)O)C(C)C)[C@@H](C)O` [compound 112] ({C20 diacid-γGlu}-KCNTATCTVDRLAHQIAQFTDKDKDNVAPPTNVGSNG[Hyp]-NH2; disulfide 2-7), the EC50 is greater than 5000 nM at hAM1 receptor and 0.021 nM at hAMY3 receptor.

By EC50 is commonly meant the concentration at which the effect is half-maximal.
